Results reported in ChEMBL document CHEMBL1770059, “Identification of chemicals to inhibit the kinase activity of leucine-rich repeat kinase 2 (LRRK2), a Parkinson's disease-associated protein” (Bioorg Med Chem Lett, 2011).

Tests used:
[1] = target: Leucine-rich repeat serine/threonine-protein kinase 2 (Homo sapiens, UniProt Q5S007, G2019S); test: Inhibition of purified N-terminal GST-tagged LRRK2 G2019S mutant autophosphorylation activity using myelin basic protein as substrate
[2] = tested on: Leucine-rich repeat serine/threonine-protein kinase 2 (Homo sapiens), Q5S007 [G2019S]; test: Inhibition of purified N-terminal GST-tagged LRRK2 G2019S mutant assessed as residual activity of enzyme at 25 uM
[3] = target: Casein kinase I isoform alpha (Homo sapiens) (UniProt P48729); test: Inhibition of CK1 assessed as residual activity of enzyme at 10 uM
[4] = target: Serine/threonine-protein kinase mTOR (Homo sapiens) (UniProt P42345); test: Inhibition of mTOR assessed as residual activity of enzyme at 10 uM
[5] = target: Ribosomal protein S6 kinase beta-1 (Homo sapiens) (UniProt P23443); test: Inhibition of p70S6K assessed as residual activity of enzyme at 10 uM
[6] = target: T1, Serine/threonine-protein kinase TAO1 (Homo sapiens) (UniProt Q7L7X3); test: Inhibition of TAO1 assessed as residual activity of enzyme at 25 uM
T1 sequence (whole entry): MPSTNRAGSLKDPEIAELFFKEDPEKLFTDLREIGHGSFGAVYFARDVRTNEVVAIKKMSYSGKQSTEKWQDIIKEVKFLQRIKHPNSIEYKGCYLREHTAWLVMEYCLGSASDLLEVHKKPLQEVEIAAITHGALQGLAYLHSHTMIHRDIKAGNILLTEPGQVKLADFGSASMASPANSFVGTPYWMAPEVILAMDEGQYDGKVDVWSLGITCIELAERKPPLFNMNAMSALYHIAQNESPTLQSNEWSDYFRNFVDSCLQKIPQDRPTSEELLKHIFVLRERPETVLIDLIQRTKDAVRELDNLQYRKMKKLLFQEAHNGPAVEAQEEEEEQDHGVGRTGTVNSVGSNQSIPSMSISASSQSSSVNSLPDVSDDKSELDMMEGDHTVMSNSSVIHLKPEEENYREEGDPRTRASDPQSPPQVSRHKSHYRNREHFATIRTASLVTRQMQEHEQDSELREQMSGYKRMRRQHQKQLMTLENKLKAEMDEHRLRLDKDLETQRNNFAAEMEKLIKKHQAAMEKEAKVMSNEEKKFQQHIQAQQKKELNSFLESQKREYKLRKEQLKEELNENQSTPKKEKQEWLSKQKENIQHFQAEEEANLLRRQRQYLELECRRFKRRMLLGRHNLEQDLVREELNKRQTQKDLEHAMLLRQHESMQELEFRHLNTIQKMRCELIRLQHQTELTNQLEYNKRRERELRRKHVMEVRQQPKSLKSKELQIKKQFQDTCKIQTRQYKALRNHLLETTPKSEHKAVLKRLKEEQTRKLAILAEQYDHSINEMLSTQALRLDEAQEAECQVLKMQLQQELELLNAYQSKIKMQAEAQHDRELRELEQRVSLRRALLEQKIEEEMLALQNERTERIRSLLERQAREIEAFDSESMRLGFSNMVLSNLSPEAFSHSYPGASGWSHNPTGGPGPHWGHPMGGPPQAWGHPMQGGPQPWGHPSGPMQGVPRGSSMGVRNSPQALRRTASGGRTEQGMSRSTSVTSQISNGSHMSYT

[7] = target: T2, Serine/threonine-protein kinase TAO3 (Homo sapiens) (UniProt Q9H2K8); test: Inhibition of TAO3 assessed as residual activity of enzyme at 10 uM
T2 sequence (whole entry): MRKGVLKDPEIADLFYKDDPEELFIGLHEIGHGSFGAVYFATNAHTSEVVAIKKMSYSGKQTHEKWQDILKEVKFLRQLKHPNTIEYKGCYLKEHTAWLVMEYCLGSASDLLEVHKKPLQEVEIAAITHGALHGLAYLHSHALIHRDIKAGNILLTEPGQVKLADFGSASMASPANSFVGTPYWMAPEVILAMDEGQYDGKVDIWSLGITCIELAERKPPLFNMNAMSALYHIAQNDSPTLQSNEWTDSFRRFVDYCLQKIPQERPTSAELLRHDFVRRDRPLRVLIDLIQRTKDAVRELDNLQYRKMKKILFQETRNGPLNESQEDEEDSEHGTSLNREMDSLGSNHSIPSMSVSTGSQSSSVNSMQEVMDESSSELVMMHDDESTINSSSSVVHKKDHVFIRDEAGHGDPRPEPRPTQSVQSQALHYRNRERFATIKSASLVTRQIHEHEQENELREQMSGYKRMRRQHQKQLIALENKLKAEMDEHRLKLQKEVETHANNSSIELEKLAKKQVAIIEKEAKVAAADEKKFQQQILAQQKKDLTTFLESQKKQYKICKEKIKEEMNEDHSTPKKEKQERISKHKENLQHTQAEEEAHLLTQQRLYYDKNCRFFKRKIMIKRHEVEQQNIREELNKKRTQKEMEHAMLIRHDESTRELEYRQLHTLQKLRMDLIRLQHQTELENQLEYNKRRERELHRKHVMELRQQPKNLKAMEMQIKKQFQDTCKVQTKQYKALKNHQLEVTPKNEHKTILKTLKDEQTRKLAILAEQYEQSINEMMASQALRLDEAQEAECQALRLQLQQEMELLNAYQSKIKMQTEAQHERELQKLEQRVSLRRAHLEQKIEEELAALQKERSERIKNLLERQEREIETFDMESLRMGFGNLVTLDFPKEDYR

[8] = target: T2, Serine/threonine-protein kinase TAO3 (Homo sapiens); test: Inhibition of TAO3 assessed as residual activity of enzyme at 25 uM

Chain of Ribosomal protein S6 kinase beta-1 (Homo sapiens) (P23443 whole entry, looked up): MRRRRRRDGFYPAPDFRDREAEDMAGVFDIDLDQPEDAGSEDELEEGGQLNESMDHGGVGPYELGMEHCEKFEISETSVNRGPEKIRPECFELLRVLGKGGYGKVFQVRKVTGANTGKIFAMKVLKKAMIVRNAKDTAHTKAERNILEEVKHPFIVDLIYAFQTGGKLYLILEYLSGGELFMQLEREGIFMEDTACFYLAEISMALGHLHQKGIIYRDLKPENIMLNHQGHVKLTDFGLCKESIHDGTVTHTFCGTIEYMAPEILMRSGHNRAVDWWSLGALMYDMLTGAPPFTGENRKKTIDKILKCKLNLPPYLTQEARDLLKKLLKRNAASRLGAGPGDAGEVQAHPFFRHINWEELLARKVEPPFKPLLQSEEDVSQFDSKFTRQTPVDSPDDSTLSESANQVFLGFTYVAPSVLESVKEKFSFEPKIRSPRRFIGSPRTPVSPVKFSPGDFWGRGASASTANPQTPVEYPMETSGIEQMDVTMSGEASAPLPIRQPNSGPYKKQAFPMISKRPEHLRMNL
Chain of Casein kinase I isoform alpha (Homo sapiens) (P48729 2-337 limits assumed): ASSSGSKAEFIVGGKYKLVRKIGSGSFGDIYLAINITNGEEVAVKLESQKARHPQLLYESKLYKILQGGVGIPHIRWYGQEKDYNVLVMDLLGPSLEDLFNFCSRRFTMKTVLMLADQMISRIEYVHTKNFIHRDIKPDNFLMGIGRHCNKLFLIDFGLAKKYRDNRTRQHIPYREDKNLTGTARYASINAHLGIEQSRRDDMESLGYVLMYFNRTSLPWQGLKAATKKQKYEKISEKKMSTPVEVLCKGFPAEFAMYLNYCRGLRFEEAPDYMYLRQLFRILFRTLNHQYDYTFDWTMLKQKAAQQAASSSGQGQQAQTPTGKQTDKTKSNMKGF
Chain of Leucine-rich repeat serine/threonine-protein kinase 2 (Homo sapiens), Q5S007 [G2019S] (Q5S007 whole entry G2019S, canonical isoform): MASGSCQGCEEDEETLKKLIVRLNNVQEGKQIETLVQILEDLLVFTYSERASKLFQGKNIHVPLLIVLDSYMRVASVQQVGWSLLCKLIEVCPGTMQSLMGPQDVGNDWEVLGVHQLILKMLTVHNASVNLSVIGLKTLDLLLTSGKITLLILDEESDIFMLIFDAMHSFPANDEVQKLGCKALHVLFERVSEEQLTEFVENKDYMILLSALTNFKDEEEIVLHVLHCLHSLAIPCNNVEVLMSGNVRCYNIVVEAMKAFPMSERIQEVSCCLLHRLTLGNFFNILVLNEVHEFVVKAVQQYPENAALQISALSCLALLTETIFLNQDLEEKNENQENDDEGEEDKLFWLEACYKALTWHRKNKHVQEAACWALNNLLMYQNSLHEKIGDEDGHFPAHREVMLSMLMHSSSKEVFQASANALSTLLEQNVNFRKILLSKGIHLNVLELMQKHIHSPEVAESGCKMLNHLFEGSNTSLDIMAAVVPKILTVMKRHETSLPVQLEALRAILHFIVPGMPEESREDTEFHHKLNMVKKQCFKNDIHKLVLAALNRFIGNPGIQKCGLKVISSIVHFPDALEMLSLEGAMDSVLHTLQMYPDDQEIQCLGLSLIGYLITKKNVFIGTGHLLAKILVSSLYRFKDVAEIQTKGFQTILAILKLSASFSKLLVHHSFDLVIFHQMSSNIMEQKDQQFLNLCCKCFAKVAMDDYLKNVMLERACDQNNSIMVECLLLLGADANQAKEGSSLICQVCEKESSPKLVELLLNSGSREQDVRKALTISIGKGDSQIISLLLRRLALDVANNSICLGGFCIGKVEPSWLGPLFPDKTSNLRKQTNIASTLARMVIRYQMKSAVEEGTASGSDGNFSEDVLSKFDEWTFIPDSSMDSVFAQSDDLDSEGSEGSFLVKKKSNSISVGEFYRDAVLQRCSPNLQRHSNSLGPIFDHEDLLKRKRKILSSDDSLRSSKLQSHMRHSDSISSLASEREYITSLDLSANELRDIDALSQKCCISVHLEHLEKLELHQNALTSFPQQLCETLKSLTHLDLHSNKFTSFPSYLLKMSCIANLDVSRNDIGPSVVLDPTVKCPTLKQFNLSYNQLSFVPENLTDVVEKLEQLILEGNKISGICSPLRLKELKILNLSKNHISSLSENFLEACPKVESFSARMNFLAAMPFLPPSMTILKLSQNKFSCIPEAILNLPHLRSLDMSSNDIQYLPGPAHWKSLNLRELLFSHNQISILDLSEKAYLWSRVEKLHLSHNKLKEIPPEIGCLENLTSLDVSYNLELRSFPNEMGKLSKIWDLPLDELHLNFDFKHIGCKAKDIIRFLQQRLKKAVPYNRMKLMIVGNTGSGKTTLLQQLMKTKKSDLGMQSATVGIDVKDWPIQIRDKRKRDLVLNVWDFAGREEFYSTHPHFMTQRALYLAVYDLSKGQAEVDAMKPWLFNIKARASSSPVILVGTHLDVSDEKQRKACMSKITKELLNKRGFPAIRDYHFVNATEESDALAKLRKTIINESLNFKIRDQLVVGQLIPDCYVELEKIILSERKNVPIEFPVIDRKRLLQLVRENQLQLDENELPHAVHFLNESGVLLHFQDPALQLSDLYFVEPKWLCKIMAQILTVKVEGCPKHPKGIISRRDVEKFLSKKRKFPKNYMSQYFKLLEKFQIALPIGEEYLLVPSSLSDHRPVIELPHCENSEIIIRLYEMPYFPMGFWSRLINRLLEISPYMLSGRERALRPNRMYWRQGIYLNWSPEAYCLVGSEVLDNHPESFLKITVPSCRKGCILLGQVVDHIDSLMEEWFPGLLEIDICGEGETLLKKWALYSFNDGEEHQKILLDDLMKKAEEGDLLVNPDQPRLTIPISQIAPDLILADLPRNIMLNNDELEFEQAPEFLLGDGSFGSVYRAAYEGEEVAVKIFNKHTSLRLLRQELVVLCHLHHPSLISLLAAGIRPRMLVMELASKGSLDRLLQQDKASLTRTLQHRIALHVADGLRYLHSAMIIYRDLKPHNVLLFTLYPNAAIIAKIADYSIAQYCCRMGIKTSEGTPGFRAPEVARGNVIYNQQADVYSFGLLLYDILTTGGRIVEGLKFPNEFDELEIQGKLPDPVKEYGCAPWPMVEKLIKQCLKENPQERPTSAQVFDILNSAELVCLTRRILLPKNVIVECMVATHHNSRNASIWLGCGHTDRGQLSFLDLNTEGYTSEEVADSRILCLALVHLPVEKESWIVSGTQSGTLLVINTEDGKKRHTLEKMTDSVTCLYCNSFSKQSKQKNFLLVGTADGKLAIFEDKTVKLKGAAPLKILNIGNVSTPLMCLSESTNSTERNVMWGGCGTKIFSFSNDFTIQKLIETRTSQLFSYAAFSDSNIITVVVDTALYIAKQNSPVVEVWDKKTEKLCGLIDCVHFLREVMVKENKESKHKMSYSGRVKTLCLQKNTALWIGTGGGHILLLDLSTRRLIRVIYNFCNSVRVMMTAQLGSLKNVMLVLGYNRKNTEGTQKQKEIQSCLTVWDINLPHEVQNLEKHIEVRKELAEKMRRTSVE
Chain of Leucine-rich repeat serine/threonine-protein kinase 2 (Q5S007 whole entry G2019S): as the sequence (Q5S007 whole entry G2019S, canonical isoform) above

IC50 [1]: 4.1 µM
Activity [2]: 11%
Activity [3]: 77%
Activity [4]: 103%
Activity [5]: 67%
Activity [6]: 84%
Activity [7]: 97%
Activity [8]: 81%
Structure (SMILES): Cc1cc(N/N=C/c2ccncc2)nc2ccccc12
